≈ marks a conversion by molar mass, not a printed value. Square brackets hold non-standard residues; d marks the D form. Peptide text beside a SMILES is read from it. * marks the point of attachment. Palmitoyl = CCCCCCCCCCCCCCCC(=O)*; Lauroyl = CCCCCCCCCCCC(=O)*
What was measured:
Assay type in all cases: functional
[1] = tested on: Staphylococcus aureus; experiment: Antimicrobial activity against Staphylococcus aureus ATCC 29213 […]
[2] = tested on: Staphylococcus aureus; experiment: Antimicrobial activity against methicillin-resistant Staphylococcus aureus ATCC 33592 […]
[3] = tested on: Staphylococcus epidermidis; experiment: Antimicrobial activity against Staphylococcus epidermidis ATCC 14990 […]
[4] = tested on: Staphylococcus epidermidis; experiment: Antimicrobial activity against methicillin-resistant Staphylococcus epidermidis CAN-ICU 61589 […]
[5] = tested on: Enterococcus faecalis; experiment: Antimicrobial activity against Enterococcus faecalis ATCC 29212 […]
[6] = tested on: Enterococcus faecium; experiment: Antimicrobial activity against Enterococcus faecium ATCC 27270 […]
[7] = tested on: Streptococcus pneumoniae; experiment: Antimicrobial activity against Streptococcus pneumoniae ATCC 49619 […]
[8] = tested on: Escherichia coli; experiment: Antimicrobial activity against Escherichia coli ATCC 25922 by […]
[9] = tested on: Escherichia coli; experiment: Antimicrobial activity against Escherichia coli CAN-ICU 61714 […]
[10] = tested on: Escherichia coli; experiment: Antimicrobial activity against Escherichia coli CAN-ICU 63074 […]
[11] = tested on: Pseudomonas aeruginosa; experiment: Antimicrobial activity against Pseudomonas aeruginosa ATCC 27853 […]
[12] = tested on: Pseudomonas aeruginosa; experiment: Antimicrobial activity against Pseudomonas aeruginosa CAN-ICU 62308 […]
[13] = tested on: Stenotrophomonas maltophilia; experiment: Antimicrobial activity against Stenotrophomonas maltophilia CAN-ICU 62584 […]
[14] = tested on: Acinetobacter baumannii; experiment: Antimicrobial activity against Acinetobacter baumannii CAN-ICU 63169 by […]
[15] = tested on: Klebsiella pneumoniae; experiment: Antimicrobial activity against Klebsiella pneumoniae ATCC 13883 […]

Row | Molecule | MIC [1] [µg/mL] | MIC [2] [µg/mL] | MIC [3] [µg/mL] | MIC [4] [µg/mL] | MIC [5] [µg/mL] | MIC [6] [µg/mL] | MIC [7] [µg/mL] | MIC [8] [µg/mL] | MIC [9] [µg/mL] | MIC [10] [µg/mL] | MIC [11] [µg/mL] | MIC [12] [µg/mL] | MIC [13] [µg/mL] | MIC [14] [µg/mL] | MIC [15] [µg/mL]
1 | CCCCCCCCCCCCCCCC(=O)N[C@H](CCCN)CC(=O)NCC(=O)NCC(=O)N[C@H](CCCN)CC(=O)O | 16 (≈ 25.5 µM) | 32 (≈ 51 µM) | 8 (≈ 12.8 µM) | 16 (≈ 25.5 µM) | 32 (≈ 51 µM) | 32 (≈ 51 µM) | 128 (≈ 204 µM) | 32 (≈ 51 µM) | 32 (≈ 51 µM) | 32 (≈ 51 µM) | 64 (≈ 102 µM) | > 64 | 256 (≈ 408 µM) | 128 (≈ 204 µM) | 128 (≈ 204 µM)
2 | GENTAMICIN | 1 | 2 | 0.25 | 32 |  |  | 4 | 1 | 128 | 8 | 8 | 128 | > 512 | 128 | 0.25
3 | CCCCCCCCCCCCCCCC(=O)N[C@@H](CCCCN)C(=O)N[C@@H](CCCCN)C(=O)N[C@H](CCCCN)C(=O)N[C@@H](CCCCN)C(=O)O (Palmitoyl-KK[dK]K-OH) | 16 (≈ 20.8 µM) | 16 (≈ 20.8 µM) | 4 (≈ 5.2 µM) | 8 (≈ 10.4 µM) | 32 (≈ 41.6 µM) | 16 (≈ 20.8 µM) | > 32 | 32 (≈ 41.6 µM) | 32 (≈ 41.6 µM) | 32 (≈ 41.6 µM) | 32 (≈ 41.6 µM) | 256 (≈ 333 µM) | 256 (≈ 333 µM) | 256 (≈ 333 µM) | 256 (≈ 333 µM)
4 | CCCCCCCCCCCCCCCC(=O)N[C@@H](CCCCN)C(=O)N[C@@H](C)C(=O)N[C@@H](C)C(=O)N[C@@H](CCCCN)C(=O)O (Palmitoyl-KAAK-OH) | 16 (≈ 24.4 µM) | 16 (≈ 24.4 µM) | 8 (≈ 12.2 µM) | 8 (≈ 12.2 µM) | 16 (≈ 24.4 µM) | 8 (≈ 12.2 µM) | 128 (≈ 195 µM) | 16 (≈ 24.4 µM) | 16 (≈ 24.4 µM) | 16 (≈ 24.4 µM) | 32 (≈ 48.9 µM) | 64 (≈ 97.7 µM) | 128 (≈ 195 µM) | 128 (≈ 195 µM) | 128 (≈ 195 µM)
5 | CCCCCCCCCCCCCCCC(=O)N[C@@H](CCCCN)C(=O)N[C@@H](C)C(=O)N[C@H](C)C(=O)N[C@@H](CCCCN)C(=O)O (Palmitoyl-KA[dA]K-OH) | 8 (≈ 12.2 µM) | 32 (≈ 48.9 µM) | 4 (≈ 6.11 µM) | 8 (≈ 12.2 µM) | 16 (≈ 24.4 µM) | 8 (≈ 12.2 µM) | 128 (≈ 195 µM) | 32 (≈ 48.9 µM) | 32 (≈ 48.9 µM) | 32 (≈ 48.9 µM) | 64 (≈ 97.7 µM) | 64 (≈ 97.7 µM) | 128 (≈ 195 µM) | 128 (≈ 195 µM) | 128 (≈ 195 µM)
6 | CCCCCCCCCCCC(=O)N[C@@H](CCCCN)C(=O)N[C@@H](CC(C)C)C(=O)N[C@@H](CC(C)C)C(=O)N[C@@H](CCCCN)C(=O)O (Lauroyl-KLLK-OH) | 16 (≈ 23.4 µM) | 16 (≈ 23.4 µM) | 16 (≈ 23.4 µM) | 16 (≈ 23.4 µM) | 32 (≈ 46.9 µM) | 16 (≈ 23.4 µM) | 128 (≈ 187 µM) | 128 (≈ 187 µM) | 128 (≈ 187 µM) | 128 (≈ 187 µM) | 128 (≈ 187 µM) | 128 (≈ 187 µM) | > 256 | > 64 | 256 (≈ 375 µM)
7 | CCCCCCCCCCCCCCCC(=O)N[C@H](CCCN)CC(=O)NCCC(=O)NCCC(=O)N[C@H](CCCN)CC(=O)O | 64 (≈ 97.7 µM) | 32 (≈ 48.9 µM) | 8 (≈ 12.2 µM) | 16 (≈ 24.4 µM) | 32 (≈ 48.9 µM) | 32 (≈ 48.9 µM) | > 64 | 64 (≈ 97.7 µM) | 64 (≈ 97.7 µM) | 64 (≈ 97.7 µM) | 256 (≈ 391 µM) | 128 (≈ 195 µM) | > 128 | 256 (≈ 391 µM) | > 128
8 | CCCCCCCCCCCC(=O)N[C@@H](CCCCN)C(=O)N[C@@H](CC(C)C)C(=O)N[C@H](CC(C)C)C(=O)N[C@@H](CCCCN)C(=O)O (Lauroyl-KL[dL]K-OH) | 16 (≈ 23.4 µM) | 16 (≈ 23.4 µM) | 8 (≈ 11.7 µM) | 16 (≈ 23.4 µM) | 32 (≈ 46.9 µM) | 32 (≈ 46.9 µM) | 64 (≈ 93.7 µM) | 64 (≈ 93.7 µM) | 64 (≈ 93.7 µM) | 64 (≈ 93.7 µM) | 128 (≈ 187 µM) | 128 (≈ 187 µM) | > 256 | > 256 | > 64
9 | CCCCCCCCCCCCCCCC(=O)N[C@H](CCCN)CC(=O)N[C@H](CCCN)CC(=O)N[C@H](CCCN)CC(=O)N[C@H](CCCN)CC(=O)O | 16 (≈ 20.8 µM) | 16 (≈ 20.8 µM) | 4 (≈ 5.2 µM) | 4 (≈ 5.2 µM) | 32 (≈ 41.6 µM) | 16 (≈ 20.8 µM) | 128 (≈ 166 µM) | 16 (≈ 20.8 µM) | 32 (≈ 41.6 µM) | 32 (≈ 41.6 µM) | 64 (≈ 83.2 µM) | 128 (≈ 166 µM) | 256 (≈ 333 µM) | 256 (≈ 333 µM) | 128 (≈ 166 µM)
10 | CCCCCCCCCCCCCCCC(=O)N[C@@H](CCCCN)C(=O)NCC(=O)NCC(=O)N[C@@H](CCCCN)C(=O)O | 8 (≈ 12.8 µM) | 16 (≈ 25.5 µM) | 4 (≈ 6.38 µM) | 8 (≈ 12.8 µM) | 8 (≈ 12.8 µM) | 16 (≈ 25.5 µM) | 128 (≈ 204 µM) | 16 (≈ 25.5 µM) | 16 (≈ 25.5 µM) | 16 (≈ 25.5 µM) | 64 (≈ 102 µM) | 64 (≈ 102 µM) | 128 (≈ 204 µM) | 128 (≈ 204 µM) | 64 (≈ 102 µM)
11 | CCCCCCCCCCCCCCCC(=O)N[C@@H](CCCCN)C(=O)NCC(=O)NCC(=O)N[C@H](CCCCN)C(=O)O | 16 (≈ 25.5 µM) | 16 (≈ 25.5 µM) | 8 (≈ 12.8 µM) | 8 (≈ 12.8 µM) | 16 (≈ 25.5 µM) | 16 (≈ 25.5 µM) | 128 (≈ 204 µM) | 16 (≈ 25.5 µM) | 64 (≈ 102 µM) | 16 (≈ 25.5 µM) | 64 (≈ 102 µM) | 64 (≈ 102 µM) | 64 (≈ 102 µM) | 64 (≈ 102 µM) | 64 (≈ 102 µM)
12 | CCCCCCCCCCCCCCCC(=O)N[C@@H](CCCCN)C(=O)N[C@@H](CCCCN)C(=O)N[C@@H](CCCCN)C(=O)N[C@@H](CCCCN)C(=O)O (Palmitoyl-KKKK-OH) | 32 (≈ 41.6 µM) | 16 (≈ 20.8 µM) | 4 (≈ 5.2 µM) | 8 (≈ 10.4 µM) | 16 (≈ 20.8 µM) | 16 (≈ 20.8 µM) | > 64 | 16 (≈ 20.8 µM) | 16 (≈ 20.8 µM) | 32 (≈ 41.6 µM) | 64 (≈ 83.2 µM) | 256 (≈ 333 µM) | 256 (≈ 333 µM) | 256 (≈ 333 µM) | 256 (≈ 333 µM)
13 | CCCCCCCCCCCC(=O)N[C@H](CCCN)CC(=O)N[C@@H](CC(=O)N[C@@H](CC(=O)N[C@H](CCCN)CC(=O)O)C(C)C)C(C)C | 32 (≈ 46.9 µM) | 32 (≈ 46.9 µM) | 16 (≈ 23.4 µM) | 32 (≈ 46.9 µM) | 64 (≈ 93.7 µM) | 32 (≈ 46.9 µM) | 128 (≈ 187 µM) | 64 (≈ 93.7 µM) | 64 (≈ 93.7 µM) | 64 (≈ 93.7 µM) | 128 (≈ 187 µM) | 128 (≈ 187 µM) | 256 (≈ 375 µM) | > 128 | 256 (≈ 375 µM)

Reference: ChEMBL document CHEMBL1649185, “Antibacterial activity of ultrashort cationic lipo-beta-peptides” (2009)
